Experiments:
Assay in all cases: Test C preemergence
Assay type in all cases: in vivo
[1] = test system: lambsquarters (Chenopodium album); settings: Chenopodium album, pre-emergence, 336 h, preemergence, scale 0 to 100, read-out: Plant response rating, Lambsquarters; for pest or weed control at 31 g/ha: 31 g ai/ha; for pest or weed control at 62 g/ha: 62 g ai/ha; for pest or weed control at 125 g/ha: 125 g ai/ha
Summary of the method: (§1)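 Visual ratings (0 none to 100 complete control) were made 13 to 15 days after treatment, relative to controls. Test chemicals, formulated in a non-phytotoxic solvent mixture with surfactant, were applied in the greenhouse preemergence to seeded loam-sand soil or postemergence to plants 2 to 18 cm tall.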

[2] = test system: velvetleaf (Abutilon theophrasti); settings: Abutilon theophrasti, pre-emergence, preemergence, scale 0 to 100, read-out: Plant response rating, Velvetleaf; for pest or weed control at 31 g/ha: 31 g ai/ha; for pest or weed control at 62 g/ha: 62 g ai/ha; for pest or weed control at 125 g/ha: 125 g ai/ha; for pest or weed control at 250 g/ha: 250 g ai/ha
Summary of the method: as §1

[3] = test system: blackgrass (Alopecurus myosuroides); settings: Alopecurus myosuroides, pre-emergence, 336 h, preemergence, scale 0 to 100, read-out: Plant response rating, Blackgrass; for pest or weed control at 31 g/ha: 31 g ai/ha; for pest or weed control at 62 g/ha: 62 g ai/ha; for pest or weed control at 125 g/ha: 125 g ai/ha
Summary of the method: as §1

[4] = test system: waterhemp (common waterhemp, Amaranthus rudis); settings: Amaranthus tuberculatus, pre-emergence, preemergence, scale 0 to 100, read-out: Plant response rating, Waterhemp; for pest or weed control at 31 g/ha: 31 g ai/ha; for pest or weed control at 62 g/ha: 62 g ai/ha; for pest or weed control at 125 g/ha: 125 g ai/ha; for pest or weed control at 250 g/ha: 250 g ai/ha
Summary of the method: as §1

[5] = test system: giant foxtail (Setaria faberii); settings: Setaria faberi, pre-emergence, 336 h, preemergence, scale 0 to 100, read-out: Plant response rating, Foxtail, Giant; for pest or weed control at 31 g/ha: 31 g ai/ha; for pest or weed control at 62 g/ha: 62 g ai/ha; for pest or weed control at 125 g/ha: 125 g ai/ha
Summary of the method: as §1

[6] = test system: ragweed (common ragweed, Ambrosia elatior); settings: Ambrosia artemisiifolia, pre-emergence, 336 h, preemergence, scale 0 to 100, read-out: Plant response rating, Ragweed; for pest or weed control at 31 g/ha: 31 g ai/ha; for pest or weed control at 62 g/ha: 62 g ai/ha; for pest or weed control at 125 g/ha: 125 g ai/ha; for pest or weed control at 250 g/ha: 250 g ai/ha
Summary of the method: as §1

corn (Zea mays) = settings: Zea mays, pre-emergence, 336 h, preemergence, scale 0 to 100; for Corn plant response rating (crop injury, 0 = no effect, 100 = complete kill) at 31 g/ha: 31 g ai/ha; for Corn plant response rating (crop injury, 0 = no effect, 100 = complete kill) at 62 g/ha: 62 g ai/ha; for Corn plant response rating (crop injury, 0 = no effect, 100 = complete kill) at 125 g/ha: 125 g ai/ha
Summary of the method: as §1

soybean (Glycine max) = settings: Glycine max, pre-emergence, preemergence, scale 0 to 100, read-out: Plant response rating, Soybean; for plant injury at 31 g/ha: 31 g ai/ha; for plant injury at 62 g/ha: 62 g ai/ha; for plant injury at 125 g/ha: 125 g ai/ha; for plant injury at 250 g/ha: 250 g ai/ha
Summary of the method: as §1

[7] = test system: winter wheat (Triticum aestivum); settings: Triticum aestivum, pre-emergence, 336 h, preemergence, scale 0 to 100, read-out: Plant response rating, Wheat; for plant injury at 31 g/ha: 31 g ai/ha; for plant injury at 62 g/ha: 62 g ai/ha; for plant injury at 125 g/ha: 125 g ai/ha; for plant injury at 250 g/ha: 250 g ai/ha
Summary of the method: as §1

[8] = test system: large (Lg) crabgrass (Digitaria sanguinalis); settings: Digitaria sanguinalis, pre-emergence, 336 h, preemergence, scale 0 to 100, read-out: Plant response rating, Crabgrass, Large; for pest or weed control at 31 g/ha: 31 g ai/ha; for pest or weed control at 62 g/ha: 62 g ai/ha; for pest or weed control at 125 g/ha: 125 g ai/ha
Summary of the method: as §1

[9] = test system: oilseed rape (Brassica napus); settings: Brassica napus, pre-emergence, preemergence, scale 0 to 100, read-out: Plant response rating, Oilseed Rape; for plant injury at 31 g/ha: 31 g ai/ha; for plant injury at 62 g/ha: 62 g ai/ha; for plant injury at 125 g/ha: 125 g ai/ha; for plant injury at 250 g/ha: 250 g ai/ha
Summary of the method: as §1

[10] = test system: pigweed (Amaranthus retroflexus); settings: Amaranthus retroflexus, pre-emergence, 336 h, preemergence, scale 0 to 100, read-out: Plant response rating, Pigweed; for pest or weed control at 31 g/ha: 31 g ai/ha; for pest or weed control at 62 g/ha: 62 g ai/ha; for pest or weed control at 125 g/ha: 125 g ai/ha
Summary of the method: as §1

[11] = test system: yellow nutsedge (Cyperus esculentus); settings: Cyperus, pre-emergence, 336 h, preemergence, scale 0 to 100, read-out: Plant response rating, Nutsedge, Yellow; for pest or weed control at 31 g/ha: 31 g ai/ha; for pest or weed control at 62 g/ha: 62 g ai/ha; for pest or weed control at 125 g/ha: 125 g ai/ha
Summary of the method: as §1

[12] = test system: morningglory (Ipomoea coccinea); settings: Ipomoea, pre-emergence, 336 h, preemergence, scale 0 to 100, read-out: Plant response rating, Morningglory; for pest or weed control at 31 g/ha: 31 g ai/ha; for pest or weed control at 62 g/ha: 62 g ai/ha; for pest or weed control at 125 g/ha: 125 g ai/ha
Summary of the method: as §1

[13] = test system: Italian ryegrass (Lolium multiflorum); settings: Lolium multiflorum, pre-emergence, 336 h, preemergence, scale 0 to 100, read-out: Plant response rating, Ryegrass, Italian; for pest or weed control at 31 g/ha: 31 g ai/ha; for pest or weed control at 62 g/ha: 62 g ai/ha; for pest or weed control at 125 g/ha: 125 g ai/ha; for pest or weed control at 250 g/ha: 250 g ai/ha
Summary of the method: as §1

`Fc1cnc(Oc2c(Br)cccc2Oc2ncc(Cl)cn2)nc1` [Compound 22] gave a pest or weed control at 31 g/ha [1] of 75%, a pest or weed control at 62 g/ha [1] of 100% and a pest or weed control at 125 g/ha [1] of 100%. For the same molecule, the pest or weed control at 31 g/ha [2] was 70%, the pest or weed control at 62 g/ha [2] was 98% and the pest or weed control at 125 g/ha [2] was 100%. The pest or weed control at 250 g/ha [2] was 100%, the pest or weed control at 31 g/ha [3] was 10% and the pest or weed control at 62 g/ha [3] was 60%. It also gave a pest or weed control at 125 g/ha [3] of 90%, a pest or weed control at 31 g/ha [4] of 100% and a pest or weed control at 62 g/ha [4] of 100%. For the same molecule, the pest or weed control at 125 g/ha [4] was 100%, the pest or weed control at 250 g/ha [4] was 100% and the pest or weed control at 31 g/ha [5] was 100%. For the same molecule, the pest or weed control at 62 g/ha [5] was 100%, the pest or weed control at 125 g/ha [5] was 100% and the pest or weed control at 31 g/ha [6] was 55%. It also gave a pest or weed control at 62 g/ha [6] of 85%, a pest or weed control at 125 g/ha [6] of 90% and a pest or weed control at 250 g/ha [6] of 95%. The Corn plant response rating (crop injury, 0 = no effect, 100 = complete kill) at 31 g/ha (corn (Zea mays)) was 10%, the Corn plant response rating (crop injury, 0 = no effect, 100 = complete kill) at 62 g/ha (corn (Zea mays)) was 40% and the Corn plant response rating (crop injury, 0 = no effect, 100 = complete kill) at 125 g/ha (corn (Zea mays)) was 80%. The plant injury at 31 g/ha (soybean (Glycine max)) was 60%, the plant injury at 62 g/ha (soybean (Glycine max)) was 70% and the plant injury at 125 g/ha (soybean (Glycine max)) was 90%. It also gave a plant injury at 250 g/ha (soybean (Glycine max)) of 95%, a plant injury at 31 g/ha [7] of 0% and a plant injury at 62 g/ha [7] of 15%. The plant injury at 125 g/ha [7] was 20%, the plant injury at 250 g/ha [7] was 90% and the pest or weed control at 31 g/ha [8] was 100%. The pest or weed control at 62 g/ha [8] was 100%, the pest or weed control at 125 g/ha [8] was 100% and the plant injury at 31 g/ha [9] was 85%. For the same molecule, the plant injury at 62 g/ha [9] was 98%, the plant injury at 125 g/ha [9] was 100% and the plant injury at 250 g/ha [9] was 100%. It also gave a pest or weed control at 31 g/ha [10] of 100%, a pest or weed control at 62 g/ha [10] of 100% and a pest or weed control at 125 g/ha [10] of 100%. It also gave a pest or weed control at 31 g/ha [11] of 0%, a pest or weed control at 62 g/ha [11] of 20% and a pest or weed control at 125 g/ha [11] of 60%. For the same molecule, the pest or weed control at 31 g/ha [12] was 0%, the pest or weed control at 62 g/ha [12] was 65% and the pest or weed control at 125 g/ha [12] was 95%. It also gave a pest or weed control at 31 g/ha [13] of 5%, a pest or weed control at 62 g/ha [13] of 30% and a pest or weed control at 125 g/ha [13] of 80%. It also gave a pest or weed control at 250 g/ha [13] of 90%.
With `Fc1cnc(Oc2c(F)cccc2Oc2ncc(Cl)cn2)nc1` [Compound 23] the pest or weed control at 31 g/ha [1] was 100%, the pest or weed control at 62 g/ha [1] was 100% and the pest or weed control at 125 g/ha [1] was 100%. The pest or weed control at 31 g/ha [2] was 100%, the pest or weed control at 62 g/ha [2] was 100% and the pest or weed control at 125 g/ha [2] was 100%. It also gave a pest or weed control at 250 g/ha [2] of 100%, a pest or weed control at 31 g/ha [3] of 65% and a pest or weed control at 62 g/ha [3] of 85%. For the same molecule, the pest or weed control at 125 g/ha [3] was 95%, the pest or weed control at 31 g/ha [4] was 100% and the pest or weed control at 62 g/ha [4] was 100%. It also gave a pest or weed control at 125 g/ha [4] of 100%, a pest or weed control at 250 g/ha [4] of 100% and a pest or weed control at 31 g/ha [5] of 95%. The pest or weed control at 62 g/ha [5] was 98%, the pest or weed control at 125 g/ha [5] was 100% and the pest or weed control at 31 g/ha [6] was 85%. The pest or weed control at 62 g/ha [6] was 100%, the pest or weed control at 125 g/ha [6] was 100% and the pest or weed control at 250 g/ha [6] was 100%. It also gave a Corn plant response rating (crop injury, 0 = no effect, 100 = complete kill) at 31 g/ha (corn (Zea mays)) of 5%, a Corn plant response rating (crop injury, 0 = no effect, 100 = complete kill) at 62 g/ha (corn (Zea mays)) of 35% and a Corn plant response rating (crop injury, 0 = no effect, 100 = complete kill) at 125 g/ha (corn (Zea mays)) of 70%. For the same molecule, the plant injury at 31 g/ha (soybean (Glycine max)) was 60%, the plant injury at 62 g/ha (soybean (Glycine max)) was 80% and the plant injury at 125 g/ha (soybean (Glycine max)) was 90%. It also gave a plant injury at 250 g/ha (soybean (Glycine max)) of 95%, a plant injury at 31 g/ha [7] of 5% and a plant injury at 62 g/ha [7] of 40%. It also gave a plant injury at 125 g/ha [7] of 50%, a plant injury at 250 g/ha [7] of 90% and a pest or weed control at 31 g/ha [8] of 100%. The pest or weed control at 62 g/ha [8] was 100%, the pest or weed control at 125 g/ha [8] was 100% and the plant injury at 31 g/ha [9] was 100%. The plant injury at 62 g/ha [9] was 100%, the plant injury at 125 g/ha [9] was 100% and the plant injury at 250 g/ha [9] was 100%. It also gave a pest or weed control at 31 g/ha [10] of 100%, a pest or weed control at 62 g/ha [10] of 100% and a pest or weed control at 125 g/ha [10] of 100%. The pest or weed control at 31 g/ha [11] was 0%, the pest or weed control at 62 g/ha [11] was 10% and the pest or weed control at 125 g/ha [11] was 60%. The pest or weed control at 31 g/ha [12] was 45%, the pest or weed control at 62 g/ha [12] was 85% and the pest or weed control at 125 g/ha [12] was 98%. For the same molecule, the pest or weed control at 31 g/ha [13] was 5%, the pest or weed control at 62 g/ha [13] was 75% and the pest or weed control at 125 g/ha [13] was 85%. The pest or weed control at 250 g/ha [13] was 90%.
